Laboratory results from patent US4060606A (Leo Pharmaceutical Products Ltd. A/S, priority 1976, dated 1977).
Converted amounts (≈) assume the structure as drawn.

Legend:
Experiment in all cases: In vitro antibacterial activity, concentrations required for 50% inhibition
Type in all cases: cell-based
[1] = test system: Bacteroides fragilis Leo JA2; conditions: LEOJA2
Text: (§1) Now, however, it has been found, that the compounds of the present invention both in vitro and in vivo show interesting antimicrobial and pharmacokinetic properties. Thereby the compounds of the invention can be used in the treatment of bacterial infections in humans and animals.

[2] = test system: Bacillus subtilis Leo KA3; conditions: LEOKA3
Text: as §1

[3] = test system: Staph. aureus Leo CC 178B; conditions: Staphylococcus aureus, LEOCC178B
Text: as §1

[4] = test system: Strep. species Leo EG2
Text: as §1

[5] = test system: Strep. pyogenes Leo EC; conditions: Streptococcus pyogenes
Text: as §1

SMILES	IC50 [1]	IC50 [2]	IC50 [3]	IC50 [4]	IC50 [5]
CC(C)=CCC/C(C(=O)O)=C1/[C@@H](OCC(F)(F)F)C[C@@]2(C)[C@H]1C[C@@H](O)[C@H]1[C@@]3(C)CC[C@@H](O)[C@@H](C)[C@@H]3CC[C@@]12C [Example 48, 16-deacetoxy-16β-(2',2',2'-trifluoroethoxy)fusidic acid]	32 µg/mL (≈ 57.5 µM)	0.02 µg/mL (≈ 0.0359 µM)	0.016 µg/mL (≈ 0.0287 µM)	1 µg/mL (≈ 1.8 µM)	0.5 µg/mL (≈ 0.898 µM)
CC(C)CCC/C(C(=O)O)=C1/[C@@H](SC(C)C)C[C@@]2(C)[C@H]1C[C@@H](O)[C@H]1[C@@]3(C)CC[C@@H](O)[C@@H](C)[C@@H]3CC[C@@]12C [Example 11, 16-Deacetoxy-16β-isopropylthio-24,25-dihydrofusidic acid]	4 µg/mL (≈ 7.48 µM)	0.008 µg/mL (≈ 0.015 µM)	0.016 µg/mL (≈ 0.0299 µM)	0.1 µg/mL (≈ 0.187 µM)	0.04 µg/mL (≈ 0.0748 µM)
CC(C)=CCC/C(C(=O)O)=C1/[C@@H](SC(C)C)C[C@@]2(C)[C@H]1C[C@@H](O)[C@H]1[C@@]3(C)CC[C@@H](O)[C@@H](C)[C@@H]3CC[C@@]12C [Example 1, 16-Deacetoxy-16β-isopropylthiofusidic acid]	5 µg/mL (≈ 9.38 µM)	0.02 µg/mL (≈ 0.0375 µM)	0.032 µg/mL (≈ 0.0601 µM)	1 µg/mL (≈ 1.88 µM)	0.2 µg/mL (≈ 0.375 µM)
CC(C)=CCC/C(C(=O)O)=C1/[C@@H](OC(CF)CF)C[C@@]2(C)[C@H]1C[C@@H](O)[C@H]1[C@@]3(C)CC[C@@H](O)[C@@H](C)[C@@H]3CC[C@@]12C [Example 52]	0.63 µg/mL (≈ 1.14 µM)	0.04 µg/mL (≈ 0.0724 µM)	0.025 µg/mL (≈ 0.0452 µM)	3.2 µg/mL (≈ 5.79 µM)	0.5 µg/mL (≈ 0.905 µM)
CCO[C@H]1C[C@@]2(C)[C@@H](CC(=O)[C@H]3[C@@]4(C)CC[C@@H](O)[C@@H](C)[C@@H]4CC[C@@]32C)/C1=C(\CCC=C(C)C)C(=O)O [Example 75, 11-Keto-16-deacetoxy-16β-ethoxyfusidic acid]	13 µg/mL (≈ 26 µM)	0.05 µg/mL (≈ 0.0999 µM)	0.02 µg/mL (≈ 0.0399 µM)	3.2 µg/mL (≈ 6.39 µM)	1 µg/mL (≈ 2 µM)
CC(=O)O[C@H]1C[C@@]2(C)[C@@H](C[C@@H](O)[C@H]3[C@@]4(C)CC[C@@H](O)[C@@H](C)[C@@H]4CC[C@@]32C)/C1=C(\CCC=C(C)C)C(=O)O [Fusidic acid, reference compound]	1.6 µg/mL (≈ 3.1 µM)	0.2 µg/mL (≈ 0.387 µM)	0.032 µg/mL (≈ 0.0619 µM)	1.6 µg/mL (≈ 3.1 µM)	0.79 µg/mL (≈ 1.53 µM)
CC(C)=CCC/C(C(=O)O)=C1/[C@@H](OCCF)C[C@@]2(C)[C@H]1C[C@@H](O)[C@H]1[C@@]3(C)CC[C@@H](O)[C@@H](C)[C@@H]3CC[C@@]12C [Example 50, 16-Deacetoxy-16β-(2'-fluoroethoxy)fusidic acid]	0.32 µg/mL (≈ 0.615 µM)	0.05 µg/mL (≈ 0.096 µM)	0.02 µg/mL (≈ 0.0384 µM)	2.5 µg/mL (≈ 4.8 µM)	0.63 µg/mL (≈ 1.21 µM)
CC(C)CCC/C(C(=O)O)=C1/[C@@H](SC(C)C)C[C@@]2(C)[C@H]1CC(=O)[C@H]1[C@@]3(C)CC[C@@H](O)[C@@H](C)[C@@H]3CC[C@@]12C [Example 33, 11-Keto-16-deacetoxy-16β-isopropylthio-24,25-dihydrofusidic acid]	2 µg/mL (≈ 3.75 µM)	0.05 µg/mL (≈ 0.0938 µM)	0.04 µg/mL (≈ 0.0751 µM)	0.79 µg/mL (≈ 1.48 µM)	0.32 µg/mL (≈ 0.601 µM)
CC(C)=CCC/C(C(=O)O)=C1/[C@@H](SC(C)C)C[C@@]2(C)[C@H]1C[C@@H](O)[C@H]1[C@@]3(C)CCC(=O)[C@@H](C)[C@@H]3CC[C@@]12C [Example 34, 3-Keto-16-deacetoxy-16β-isopropylthiofusidic acid]	5 µg/mL (≈ 9.42 µM)	0.05 µg/mL (≈ 0.0942 µM)	0.04 µg/mL (≈ 0.0754 µM)	1 µg/mL (≈ 1.88 µM)	0.4 µg/mL (≈ 0.754 µM)
CC(C)=CCC/C(C(=O)O)=C1/[C@@H]([S+]([O-])C(C)C)C[C@@]2(C)[C@H]1C[C@@H](O)[C@H]1[C@@]3(C)CC[C@@H](O)[C@@H](C)[C@@H]3CC[C@@]12C (stereo partly drawn) [Example 35, 16-deacetoxy-16β-isopropylsulfinylfusidic acid]	1.3 µg/mL (≈ 2.37 µM)	0.4 µg/mL (≈ 0.729 µM)	0.05 µg/mL (≈ 0.0911 µM)	0.32 µg/mL (≈ 0.583 µM)	0.2 µg/mL (≈ 0.364 µM)
CC(C)=CCC/C(C(=O)O)=C1/[C@@H](SC(C)C)C[C@@]2(C)[C@H]1CC(=O)[C@H]1[C@@]3(C)CC[C@@H](O)[C@@H](C)[C@@H]3CC[C@@]12C [Example 32, 11-Keto-16-deacetoxy-16β-isopropylthiofusidic acid]	3.2 µg/mL (≈ 6.03 µM)	0.02 µg/mL (≈ 0.0377 µM)	0.02 µg/mL (≈ 0.0377 µM)	0.63 µg/mL (≈ 1.19 µM)	0.2 µg/mL (≈ 0.377 µM)
CC(C)=CCC/C(C(=O)O)=C1/[C@@H](OCCF)C[C@@]2(C)[C@H]1CC(=O)[C@H]1[C@@]3(C)CC[C@@H](O)[C@@H](C)[C@@H]3CC[C@@]12C [Example 76, 11-Keto-16-deacetoxy-16β-(2'-fluoroethoxy)fusidic acid]	2 µg/mL (≈ 3.86 µM)	0.032 µg/mL (≈ 0.0617 µM)	0.025 µg/mL (≈ 0.0482 µM)	4 µg/mL (≈ 7.71 µM)	1.6 µg/mL (≈ 3.08 µM)
CCO[C@H]1C[C@@]2(C)[C@@H](C[C@@H](O)[C@H]3[C@@]4(C)CC[C@@H](O)[C@@H](C)[C@@H]4CC[C@@]32C)/C1=C(\CCC=C(C)C)C(=O)O [Example 46, 16-Deacetoxy-16β-ethoxyfusidic acid]	1 µg/mL (≈ 1.99 µM)	0.05 µg/mL (≈ 0.0995 µM)	0.025 µg/mL (≈ 0.0497 µM)	5 µg/mL (≈ 9.95 µM)	1 µg/mL (≈ 1.99 µM)
CC(C)CCC/C(C(=O)O)=C1/[C@@H]([S+]([O-])C(C)C)C[C@@]2(C)[C@H]1C[C@@H](O)[C@H]1[C@@]3(C)CC[C@@H](O)[C@@H](C)[C@@H]3CC[C@@]12C (stereo partly drawn) [Example 42, 16-Deacetoxy-16β-isopropylsulfinyl-24,25-dihydrofusidic acid]	1.6 µg/mL (≈ 2.9 µM)	0.16 µg/mL (≈ 0.29 µM)	0.04 µg/mL (≈ 0.0726 µM)	0.5 µg/mL (≈ 0.908 µM)	0.16 µg/mL (≈ 0.29 µM)
